Results taken from article PMC8761912, “Cryptosporidium parvum Pyruvate Kinase Inhibitors With in vivo Anti-cryptosporidial Efficacy” (Frontiers in Microbiology, 2022).

Key:
[1] = tested on: C. parvum; design: method as in Li et al., 2019; conditions: reported value; ref Li et al., 2019; read-out: in vitro anti-Cryptosporidium EC50; cited from earlier work
[2] = tested on: C. parvum; experiment: Histopathology of distal small intestine of C. parvum-infected IFN-γ KO mice; type: in vivo, Cryptosporidium parvum; conditions: 1,000 mg/kg daily oral from day 3 PI, sacrificed day 11 PI
Experimental: (§1) Eight weeks old male interferon-gamma knockout (IFN-γ KO) mice (B6.129S7-Ifng^TM1Ts/J) were purchased from The Jackson Laboratory, United States, and allowed to quarantine and acclimatize for 1 week before the commencement of experiments. Before the start of the infection assays in mice, the tolerability of each inhibitor was determined by daily oral gavage with varying dosages (0–10 mg/kg mouse bodyweight) in groups of mice (n = 3 mice per group) for 8 days. During this period, mice were monitored daily for any changes in physical and mental activity, feeding, body weight, body temperature, fur condition, and body posture. […] Mice were divided into infected and uninfected groups (n = 3 mice per group) and each individual mouse was housed in a separate cage lined with sterile gauze bedding. Each mouse from the infected group was infected by oral gavage administration of 10^4 C. parvum AUCP-1 isolate oocysts suspended in 50 μl of PBS. Beginning day 3 PI, groups of mice were orally treated with CpPyK inhibitors (at the specified doses), sham (100 μl of 5% DMSO in PBS), or 1,000 mg/kg paromomycin (in sterile water) once daily for a total of 8 days. Fecal pellets were collected daily in individual sterile 15 ml tubes, and submerged in an equivalent volume of PBS containing a cocktail of penicillin (100 units/ml), streptomycin (100 μg/ml), chloramphenicol (34 μg/ml), and amphotericin (0.25 μg/ml), and stored at 4°C until use. Three independent replicate infection assays were performed. Mice were sacrificed at day 11 PI, and 5 cm of the distal small intestine just anterior to the cecum was resected and submerged in 10% neutral buffered formalin and submitted for histopathological processing in the Comparative Biosciences Histology Laboratory at the University of Illinois at Urbana-Champaign. Briefly, intestinal tissues preserved in 10% neutral buffered formalin were washed in 70% ethanol, embedded in paraffin, and sectioned transversely at a thickness of 5 μm. Sections were stained with hematoxylin and eosin. The slides were imaged using a Zeiss microscope fitted with a color camera.

[3] = tested on: C. parvum; experiment: In vivo efficacy in C. parvum-infected IFN-γ KO mice, fecal oocysts load by qPCR; design: species or system Cryptosporidium parvum; conditions: paromomycin 1,000 mg/kg oral once daily from day 3 PI
Experimental: as §1
DNA was isolated from 250 mg of feces collected from individual mice using the QIAamp® PowerFecal® Pro DNA kit (Qiagen, United States) following the manufacturer’s protocol. Oocysts load per gram of feces was measured by quantitative real time PCR (qPCR) analysis of the Cp18s rRNA gene (GenBank accession number AF164102) using gene-specific primers: 5′-[…]-3′ (Forward) and 5′-[…]-3′ (Reverse), described previously ([Parr et al., 2007]). To generate a quantification standard curve, fecal samples were obtained from uninfected mice and spiked with 10^8 C. parvum oocysts per gram of feces, followed by isolation of DNA as described above. Ten-fold serial dilutions of the extracted DNA were made and used as quantification standards for qPCR. C. parvum oocysts load quantification for the test mice was performed using DNA samples from the infected feces. Each 20 μl qPCR reaction contained 10 μl of PowerUp™ SYBR™ Green Master Mix (Applied Biosystems, United States), 500 nM of each primer, and 2 μl of DNA template. After 2 min of initial denaturation at 95°C, 40 cycles of denaturation at 95°C for 15 sec and annealing/extension at 60°C for 1 min were performed in a 7500 Real-Time PCR System (Applied Biosystems, United States). The oocyst load per gram of feces was derived by the 7500-system software using the generated quantification standard curves (Supplementary Figure 1).

## NC[C@@H]1O[C@H](O[C@H]2[C@@H](O)[C@H](O[C@@H]3[C@@H](O)[C@H](N)C[C@H](N)[C@H]3O[C@H]3O[C@H](CO)[C@@H](O)[C@H](O)[C@H]3N)O[C@@H]2CO)[C@H](N)[C@@H](O)[C@@H]1O [Paromomycin, reference compound]
[1]
  EC50: 450 µM
[2]
  intestinal pathology (histology, distal small intestine): notably reduced pathological changes
[3]
  oocysts load by day 9 PI vs other treatments and untreated group: significantly (P < 0.05) lower oocysts loads
